The target in this experiment is Human DAAO enzyme (Homo sapiens (Human), UniProt P14920). The experiment can be described thus: In Vitro DAAO Enzyme Assay (Amplex Red detection of H2O2 from D-Serine). It is filed as biochemical. The settings on record: 10 mM D-Serine, 60 minutes at 25° C. The protocol:
The functional activity of compounds inhibiting the DAAO enzyme was determined by utilizing the co-product of the catalysis of D-Serine, H2O2 which can be quantitatively measured using the Amplex Red (Invitrogen) detection. Amplex® Red reagent is a colorless substrate that reacts with hydrogen peroxide (H2O2) with a 1:1 stoichiometry in the presence of […] to produce highly fluorescent resorufin (excitation/emission maxima=570/585 nm). The changes in fluorescence were monitored by a fluorescence plate reader, Envision (Perkin Elmer) and increases in DAAO activity were readily detected upon addition of D-Serine and suppression of this response observed with the application of test compounds.
The Km of D-Serine was measured for each enzyme batch to maintain consistency; this Km was used in subsequent assays.
On the day of the assay compounds were serially diluted in DMSO before being diluted 1:20 with assay buffer (20 mM Tris ph 7.4). A 5 μl portion of assay buffer was added to the wells of a 384 clear base black walled plate (Corning), 5 μl of diluted compound was then added via automated plate to plate transfer using the Bravo liquid handler (Agilent technologies) followed by 5 μl of human DAAO enzyme and then 5 μl D-Serine 50 mM was added to all but the negative control wells (final concentration of 10 mM). Finally 5 μl Amplex red reagent (Invitrogen) was added to all wells as per manufacturer's protocol. The plate was incubated for 60 minutes in the dark at 25° C. and the fluorescence in each well was measured in the Envision plate reader.
The IC50 values for compounds were determined from ten point half log scale dose-response studies and represent the concentration of compound required to […] 50% inhibition of DAAO activity in the presence of 10 mM D-Serine. Concentration response curves were generated using the average of duplicate wells for each data point and analyzed using nonlinear regression and four parameter curve fit.

Structures are written as SMILES.

Chain of Human DAAO enzyme (P14920 whole entry): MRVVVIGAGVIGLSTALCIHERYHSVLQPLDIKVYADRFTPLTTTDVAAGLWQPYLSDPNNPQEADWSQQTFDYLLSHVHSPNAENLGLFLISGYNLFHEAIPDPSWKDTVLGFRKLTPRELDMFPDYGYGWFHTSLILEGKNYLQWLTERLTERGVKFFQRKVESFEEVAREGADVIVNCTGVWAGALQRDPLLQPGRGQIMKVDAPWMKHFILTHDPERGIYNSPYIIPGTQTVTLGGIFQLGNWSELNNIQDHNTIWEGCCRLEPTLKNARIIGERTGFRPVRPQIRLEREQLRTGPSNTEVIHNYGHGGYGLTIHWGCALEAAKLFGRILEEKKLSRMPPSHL

`O=c1[nH]cc(CCc2ccccc2F)cc1O` [Example 32, 5-[2-(2-Fluorophenyl)ethyl]-3-hydroxypyridin-2(1H)-one] came in with a 50% inhibitory concentration (IC50) of 170 nM. Compound `O=c1[nH]cc(SCc2cc(F)cc(Cl)c2)cc1O` [Example 10, 5-[(3-Chloro-5-fluorobenzyl)sulfanyl]-3-hydroxypyridin-2(1H)-one] yielded a 50% inhibitory concentration (IC50) of 230 nM. Then `O=c1[nH]cc(SCc2cccnc2)cc1O` [Example 22, 3-Hydroxy-5-[(pyridin-3-ylmethyl)sulfanyl]pyridin-2(1H)-one], with 250 nM; and `Cc1cccc(CSc2c[nH]c(=O)c(O)c2)c1` [Example 4, 3-Hydroxy-5-[(3-methylbenzyl)sulfanyl]pyridin-2(1H)-one], with 240 nM.

In the case of `O=c1[nH]cc(CCc2ccccc2)cc1O` [Example 27, 3-Hydroxy-5-(2-phenylethyl)pyridin-2(1H)-one], the IC50 came to 140 nM. For `O=c1[nH]cc(SCc2ccc(F)c(F)c2)cc1O` [Example 20, 5-[(3,4-Difluorobenzyl)sulfanyl]-3-hydroxypyridin-2(1H)-one] the value was 45 nM. In the case of `O=c1[nH]cc(SCc2ccccc2Cl)cc1O` [Example 7, 5-[(2-Chlorobenzyl)sulfanyl]-3-hydroxypyridin-2(1H)-one], the IC50 is 210 nM.

`O=c1[nH]cc(SCc2ccc(F)cc2)cc1O` [Example 11, 5-[(4-Fluorobenzyl)sulfanyl]-3-hydroxypyridin-2(1H)-one] came in with an IC50 of 47 nM. For `O=c1[nH]cc(SCc2cnccn2)cc1O` [Example 24, 3-Hydroxy-5-[(pyrazin-2-ylmethyl)sulfanyl]pyridin-2(1H)-one], the IC50 was found to be 1000 nM. For `Cc1nc(CSc2c[nH]c(=O)c(O)c2)co1` [Example 16, 3-Hydroxy-5-{[(2-methyl-1,3-oxazol-4-yl)methyl]sulfanyl}-pyridin-2(1H)-one] the value was 1400 nM; for `O=c1[nH]cc(SCc2cccc(F)c2)cc1O` [Example 34, 5-[(3-Fluorobenzyl)sulfanyl]-3-hydroxypyridin-2(1H)-one], 130 nM; for `O=c1[nH]cc(SCc2cccc(C(F)(F)F)c2)cc1O` [Example 8, 3-Hydroxy-5-{[3-(trifluoromethyl)benzyl]sulfanyl}pyridin-2(1H)-one], 190 nM. Then `O=c1[nH]c(SCc2ccccc2)ccc1O` [Example 35, 6-(benzylsulfanyl)-3-hydroxypyridin-2(1H)-one], with 1400 nM. Compound `O=c1[nH]cc(SCc2ccc(Cl)cn2)cc1O` [Example 19, 5-{[(5-Chloropyridin-2-yl)methyl]sulfanyl}-3-hydroxypyridin-2(1H)-one] returned a 50% inhibitory concentration (IC50) of 360 nM. For `CCc1ccc(CSc2c[nH]c(=O)c(O)c2)cc1` [Example 12, 5-[(4-Ethylbenzyl)sulfanyl]-3-hydroxypyridin-2(1H)-one] the value was 79 nM; for `Cc1ccccc1CSc1c[nH]c(=O)c(O)c1` [Example 9, 3-Hydroxy-5-[(2-methylbenzyl)sulfanyl]pyridin-2(1H)-one], 390 nM; for `O=c1[nH]cc(SCc2ccncc2)cc1O` [Example 18, 3-Hydroxy-5-[(pyridin-4-ylmethyl)sulfanyl]pyridin-2(1H)-one], 100 nM. Then `Cc1noc(C)c1CSc1c[nH]c(=O)c(O)c1` [Example 15, 5-{[(3,5-Dimethyl-1,2-oxazol-4-yl)methyl]sulfanyl}-3-hydroxypyridin-2(1H)-one], with 1900 nM; and `CC(Sc1c[nH]c(=O)c(O)c1)c1ccccc1` (centres unmarked) [Example 6, 3-Hydroxy-5-[(1-phenylethyl)sulfanyl]pyridin-2(1H)-one], with 1300 nM. Then `Cc1ccc(CSc2c[nH]c(=O)c(O)c2)cc1` [Example 3, 3-Hydroxy-5-[(4-methylbenzyl)sulfanyl]pyridin-2(1H)-one], with 29 nM. As for `Cc1ccc(CCc2c[nH]c(=O)c(O)c2)cc1` [Example 29, 3-Hydroxy-5-[2-(4-methylphenyl)ethyl]pyridin-2(1H)-one], 52 nM corresponded to half-maximal inhibition (IC50). Regarding `O=c1[nH]cc(CCc2ccc(F)cc2)cc1O` [Example 30, 5-[2-(4-Fluorophenyl)ethyl]-3-hydroxypyridin-2(1H)-one], the IC50 was 61 nM.

The compound `Cc1cccnc1CSc1c[nH]c(=O)c(O)c1` [Example 14, 3-Hydroxy-5-{[(3-methylpyridin-2-yl)methyl]sulfanyl}pyridin-2(1H)-one] registered an IC50 of 1900 nM. Then `O=c1[nH]cc(CCc2cccc(F)c2)cc1O` [Example 31, 5-[2-(3-Fluorophenyl)ethyl]-3-hydroxypyridin-2(1H)-one], with 130 nM.

On to `O=c1[nH]cc(SCc2ccccc2)cc1O` [Example 1, 5-(Benzylsulfanyl)-3-hydroxypyridin-2(1H)-one], for which the half-inhibitory concentration (IC50) was determined as 190 nM.

Compound `O=c1[nH]cc(SCc2ccccn2)cc1O` [Example 17, 3-Hydroxy-5-[(pyridin-2-ylmethyl)sulfanyl]pyridin-2(1H)-one] showed a half-maximal inhibitory concentration (IC50) of 460 nM.

Regarding `COc1ccc(CSc2c[nH]c(=O)c(O)c2)cn1` [Example 25, 3-Hydroxy-5-{[(6-methoxypyridin-3-yl)methyl]-sulfanyl}-pyridin-2(1H)-one], the midpoint of inhibition, the IC50, lay at 83 nM. For `Cc1ccccc1CCc1c[nH]c(=O)c(O)c1` [Example 26, 3-Hydroxy-5-(2-methylphenethyl)pyridin-2(1H)-one] the value was 350 nM. Consider `COc1ccc(CSc2c[nH]c(=O)c(O)c2)cc1` [Example 21, 3-Hydroxy-5-[(4-methoxybenzyl)sulfanyl]pyridin-2(1H)-one], for which half-maximal inhibition (IC50) required 130 nM. For `O=c1[nH]cc(SCc2cccc(Cl)c2)cc1O` [Example 5, 5-[(3-Chlorobenzyl)sulfanyl]-3-hydroxypyridin-2(1H)-one] the value was 55 nM; for `O=c1[nH]cc(S(=O)(=O)Cc2ccccc2)cc1O` [Example 33, 5-(Benzylsulfonyl)-3-hydroxypyridin-2(1H)-one], 490 nM; for `O=c1[nH]cc(SCc2ccc(Cl)cc2)cc1O` [Example 2, 5-[(4-Chlorobenzyl)sulfanyl]-3-hydroxypyridin-2(1H)-one], 35 nM. The compound `O=c1[nH]cc(SCc2ccc(C(F)(F)F)nc2)cc1O` [Example 13, 3-Hydroxy-5-({[6-(trifluoromethyl)pyridin-3-yl]methyl}-sulfanyl)pyridin-2(1H)-one] had an IC50 of 160 nM.

`Cc1ccc(CSc2c[nH]c(=O)c(O)c2)nc1` [Example 23, 3-Hydroxy-5-{[(5-methylpyridin-2-yl)methyl]sulfanyl}pyridin-2(1H)-one] returned an IC50 of 490 nM. `Cc1cccc(CCc2c[nH]c(=O)c(O)c2)c1` [Example 28, 3-Hydroxy-5-[2-(3-methylphenyl)ethyl]pyridin-2(1H)-one] returned an IC50 of 260 nM.

What is called IC50 is the concentration that inhibits the measured activity by half. A low value points to inhibition by little substance.

Source of the values: patent publication US9180122B2, “5- or 6-substituted 3-hydroxy-2 (1 H)-pyridinones as D-amino acid oxidase (DAAO) inhibitors in therapy of diseases such as schizophrenia, cognitive disorder and pain” (Takeda Pharmaceutical Company Limited, priority 2011, dated 2015).
